Reference: US20200017467A1, “NOVEL TRIAZOLE DERIVATIVES” (BAYER CROPSCIENCE AKTIENGESELLSCHAFT, priority 2017, published 2020)

What was measured:
[1] = Log P by HPLC on reversed phase columns (EEC directive 79/831 Annex V.A8); format: physicochemical; conditions: method [a]: LC-UV, acidic range, 0.1% formic acid in water and acetonitrile; for chromatographic logP: reversed phase HPLC columns
Procedure: Log P values: Measurement of Log P values was performed according to EEC directive 79/831 Annex V.A8 by HPLC (High Performance Liquid Chromatography) on reversed phase columns with the following methods: • ^[a] Log P value is determined by measurement of LC-UV, in an acidic range, with 0.1% formic acid in water and acetonitrile as eluent (linear gradient from 10% acetonitrile to 95% acetonitrile). • ^[b] Log P value is determined by measurement of LC-UV, in a neutral range, with 0.001 molar ammonium acetate solution in water and acetonitrile as eluent (linear gradient from 10% acetonitrile to 95% acetonitrile). • ^[c] Log P value is determined by measurement of LC-UV, in an acidic range, with 0.1% phosphoric acid and acetonitrile as eluent (linear gradient from 10% acetonitrile to 95% acetonitrile). If more than one Log P value is available within the same method, all the values are given and separated by “+”. Calibration was done with straight-chain alkan2-ones (with 3 to 16 carbon atoms) with known Log P values (measurement of Log P values using retention times with linear interpolation between successive alkanones). Lambda-max-values were determined using UV-spectra from 200 nm to 400 nm and the peak values of the chromatographic signals.

Puccinia recondita = test: In vivo preventive test on Puccinia recondita (brown rust on wheat); conditions: 264 h, 500 ppm of active ingredient, preventive spray, evaluated 11 days after inoculation, read-out: efficacy
Procedure: (§1) Example A: In Vivo Preventive Test on Puccinia recondita (Brown Rust on Wheat) [table] The active ingredients were made soluble and homogenized in a mixture of dimethyl sulfoxide/acetone//Tween® 80 and then diluted in water to the desired concentration. Young plants of wheat were treated by spraying the active ingredient prepared as described above. Control plants were treated only with an aqueous solution of acetone/dimethyl sulfoxide/Tween® 80. After 24 hours, the plants were contaminated by spraying the leaves with an aqueous suspension of Puccinia recondita spores. The contaminated wheat plants were incubated for 24 hours at 20° C. and at 100% relative humidity and then for 10 days at 20° C. and at 70-80% relative humidity. The test was evaluated 11 days after the inoculation. 0% means an efficacy which corresponds to that of the control plants while an efficacy of 100% means that no disease was observed.

Septoria tritici = test: In vivo preventive test on Septoria tritici (leaf spot on wheat); conditions: Zymoseptoria tritici, 576 h, 500 ppm of active ingredient, preventive spray, evaluated 24 days after inoculation, read-out: efficacy
Procedure: Example B: In Vivo Preventive Test on Septoria tritici (Leaf Spot on Wheat) [table] The active ingredients were made soluble and homogenized in a mixture of dimethyl sulfoxide/acetone//Tween® 80 and then diluted in water to the desired concentration. Young plants of wheat were treated by spraying the active ingredient prepared as described above. Control plants were treated only with an aqueous solution of acetone/dimethyl sulfoxide/Tween® 80. After 24 hours, the plants were contaminated by spraying the leaves with an aqueous suspension of Septoria tritici spores. The contaminated wheat plants were incubated for 72 hours at 18° C. and at 100% relative humidity and then for 21 days at 20° C. and at 90% relative humidity. The test was evaluated 24 days after the inoculation. 0% means an efficacy which corresponds to that of the control plants while an efficacy of 100% means that no disease was observed.

Sphaerotheca fuliginea = test: In vivo preventive test on Sphaerotheca fuliginea (powdery mildew on cucurbits); conditions: Podosphaera fuliginea, 360 h; 500 ppm of active ingredient; gherkin, preventive spray, evaluated 15 days after inoculation; read-out: efficacy
Procedure: Example C: In Vivo Preventive Test on Sphaerotheca fuliginea (Powdery Mildew on Cucurbits) [table] The active ingredients were made soluble and homogenized in a mixture of dimethyl sulfoxide/acetone//Tween® 80 and then diluted in water to the desired concentration. Young plants of gherkin were treated by spraying the active ingredient prepared as described above. Control plants were treated only with an aqueous solution of acetone/dimethyl sulfoxide/Tween® 80. After 24 hours, the plants were contaminated by spraying the leaves with an aqueous suspension of Sphaerotheca fuliginea spores. The contaminated gherkin plants were incubated for 72 hours at 18° C. and at 100% relative humidity and then for 12 days at 20° C. and at 70-80% relative humidity. The test was evaluated 15 days after the inoculation. 0% means an efficacy which corresponds to that of the control plants while an efficacy of 100% means that no disease was observed.

Uromyces appendiculatus = test: In vivo preventive test on Uromyces appendiculatus (bean rust); conditions: 264 h, 500 ppm of active ingredient, preventive spray, evaluated 11 days after inoculation, read-out: efficacy
Procedure: as §1, with “D:” for “A:”, “Uromyces appendiculatus (Bean Rust)” for “Puccinia recondita (Brown Rust on Wheat)”, “bean” for “wheat”, “Uromyces appendiculatus” for “Puccinia recondita”

[2] = test system: Blumeria graminis fsp. hordei; test: In vivo preventive Blumeria test (barley); conditions: 168 h, 500 ppm of active ingredient, preventive spray, evaluated 7 days after inoculation, read-out: efficacy
Procedure: Example E: In Vivo Preventive Blumeria Test (Barlev) [table] To produce a suitable preparation of active compound, 1 part by weight of active compound or active compound combination was mixed with the stated amounts of solvent and emulsifier, and the concentrate was diluted with water to the desired concentration. To test for preventive activity, young plants were sprayed with the preparation of active compound or active compound combination at the stated rate of application. After the spray coating had been dried, the plants were dusted with spores of Blumeria graminis fsp. hordei. The plants were placed in the greenhouse at a temperature of approximately 18° C. and a relative atmospheric humidity of approximately 80% to promote the development of mildew pustules. The test was evaluated 7 days after the inoculation. 0% means an efficacy which corresponds to that of the untreated control, while an efficacy of 100% means that no disease is observed.

SMILES: CC(O)(Cn1cncn1)c1ccc(Oc2ccc(Cl)nc2)nc1Cl (stereo not drawn) [I-03]
- LogP ([1]; compounds of formula (I)): 2.04^[a]

SMILES: OC(Cn1cncn1)c1cnc(Oc2ccc(C(F)(F)F)nc2)cc1C(F)(F)F (stereo not drawn) [I-08]
- LogP ([1]; compounds of formula (I)): 2.35^[a]

SMILES: OC(Cn1cncn1)c1ccc(Oc2ccc(Cl)nc2)nc1C(F)(F)F (stereo not drawn) [I-10]
- LogP ([1]; compounds of formula (I)): 2.07^[a]

SMILES: OC(Cn1cncn1)c1ccc(Oc2ccc(Cl)nc2)nc1Cl (stereo not drawn) [I-11]
- LogP ([1]; compounds of formula (I)): 1.79^[a]

SMILES: OC(Cn1cncn1)c1ccc(Oc2ccc(Br)nc2)nc1C(F)(F)F (stereo not drawn) [I-12, 1-[6-[(6-bromo-3-pyridyl)oxy]-2-(trifluoromethyl)-3-pyridyl]-2-(1,2,4-triazol-1-yl)ethanol]
- chromatographic logP ([1]; compounds of formula (I)): 2.03
- pest or weed control at 500 ppm (Puccinia recondita): 80 to 89%
- pest or weed control at 500 ppm (Septoria tritici): 90 to 100%
- pest or weed control at 500 ppm (Sphaerotheca fuliginea): 90 to 100%
- pest or weed control at 500 ppm (Uromyces appendiculatus): 90 to 100%
- pest or weed control at 500 ppm [2]: 90 to 100%

SMILES: OC(Cn1cncn1)c1cnc(Oc2ccc(Cl)nc2)cc1C(F)(F)F (stereo not drawn) [I-14, 1-[6-[(6-chloro-3-pyridyl)oxy]-4-(trifluoromethyl)-3-pyridyl]-2-(1,24-triazol-1-yl)ethanol]
- chromatographic logP ([1]; compounds of formula (I)): 1.99
- pest or weed control at 500 ppm (Puccinia recondita): 90 to 100%
- pest or weed control at 500 ppm (Septoria tritici): 90 to 100%
- pest or weed control at 500 ppm (Sphaerotheca fuliginea): 90 to 100%
- pest or weed control at 500 ppm (Uromyces appendiculatus): 90 to 100%
- pest or weed control at 500 ppm [2]: 90 to 100%

SMILES: CC(=O)c1ccc(Oc2ccc(Br)nc2)nc1C(F)(F)F [V-01, 1-[6-[(6-bromo-3-pyridyl)oxy]-2-(trifluoromethyl)-3-pyridyl]ethanone]
- chromatographic logP ([1]; compounds of formula (V)): 3.12

SMILES: CC(=O)c1ccc(Oc2ccc(C(F)(F)F)nc2)nc1C(F)(F)F [V-02, 1-[2-(trifluoromethyl)-6-[[6-(trifluoromethyl)-3-pyridyl]oxy]-3-pyridyl]ethanone]
- chromatographic logP ([1]; compounds of formula (V)): 3.26

SMILES: CC(=O)c1ccc(Oc2ccc(Cl)nc2)nc1Cl [V-03]
- LogP ([1]; compounds of formula (V)): 2.66^[a]

SMILES: CC(=O)c1cnc(Oc2ccc(C(F)(F)F)nc2)cc1C(F)(F)F [V-04]
- LogP ([1]; compounds of formula (V)): 3.44^[a]

SMILES: CC(=O)c1ccc(Oc2ccc(Cl)nc2)nc1C(F)(F)F [V-05]
- LogP ([1]; compounds of formula (V)): 3.00^[a]

SMILES: CC(=O)c1cnc(Oc2ccc(Cl)nc2)cc1C(F)(F)F [V-06, 1-[6-[(6-chloro-3-pyridyl)oxy]-4-(trifluoromethyl)-3-pyridyl]ethanone]
- chromatographic logP ([1]; compounds of formula (V)): 3

SMILES: CC(=O)c1cnc(Oc2ccc(Br)nc2)cc1C(F)(F)F [V-07]
- LogP ([1]; compounds of formula (V)): 3.17^[a]

SMILES: CC(=O)c1ccc(Oc2ccc(F)nc2)nc1Cl [V-08]
- LogP ([1]; compounds of formula (V)): 2.39^[a]

SMILES: CC(=O)c1ccc(Oc2ccc(C)nc2)nc1Cl [V-09]
- LogP ([1]; compounds of formula (V)): 1.42^[a]

SMILES: CC(=O)c1cnc(Oc2ccc(Cl)nc2)cc1Cl [V-10]
- LogP ([1]; compounds of formula (V)): 2.59^[a]

SMILES: O=C(CCl)c1ccc(Oc2ccc(Br)nc2)nc1C(F)(F)F [VI-01, 1-[6-[(6-bromo-3-pyridyl)oxy]-2-(trifluoromethyl)-3-pyridyl]-2-chloro-ethanone]
- chromatographic logP ([1]; compounds of formula (VI)): 3.44

SMILES: O=C(CCl)c1ccc(Oc2ccc(C(F)(F)F)nc2)nc1C(F)(F)F [VI-02, 2-chloro-1-[2-(trifluoromethyl)-6-[[6-(trifluoromethyl)-3-pyridyl]oxy]-3-pyridyl]ethanone]
- chromatographic logP ([1]; compounds of formula (VI)): 3.6

SMILES: O=C(CCl)c1ccc(Oc2ccc(Cl)nc2)nc1Cl [VI-03]
- LogP ([1]; compounds of formula (VI)): 3.00^[a]

SMILES: O=C(CCl)c1cnc(Oc2ccc(C(F)(F)F)nc2)cc1C(F)(F)F [VI-04]
- LogP ([1]; compounds of formula (VI)): 3.64^[a]

SMILES: O=C(CCl)c1ccc(Oc2ccc(Cl)nc2)nc1C(F)(F)F [VI-05]
- LogP ([1]; compounds of formula (VI)): 3.27^[a]

SMILES: O=C(Cn1cncn1)c1ccc(Oc2ccc(Br)nc2)nc1C(F)(F)F [VII-01, 1-[6-[(6-bromo-3-pyridyl)oxy]-2-(trifluoromethyl)-3-pyridyl]-2-(1,2,4-triazol-1-yl)ethanone]
- chromatographic logP ([1]; compounds of formula (VII)): 2.23
- pest or weed control at 500 ppm (Puccinia recondita): 80 to 89%
- pest or weed control at 500 ppm (Septoria tritici): 90 to 100%
- pest or weed control at 500 ppm (Sphaerotheca fuliginea): 90 to 100%
- pest or weed control at 500 ppm (Uromyces appendiculatus): 90 to 100%

SMILES: O=C(Cn1cncn1)c1ccc(Oc2ccc(C(F)(F)F)nc2)nc1C(F)(F)F [VII-02, 2-(1,2,4-triazol-1-yl)-1-[2-(trifluoromethyl)-6-[[6-(trifluoromethyl)-3-pyridyl]oxy]-3-pyridyl]ethanone]
- chromatographic logP ([1]; compounds of formula (VII)): 2.43
- pest or weed control at 500 ppm (Puccinia recondita): 80 to 89%
- pest or weed control at 500 ppm (Septoria tritici): 90 to 100%
- pest or weed control at 500 ppm (Sphaerotheca fuliginea): 90 to 100%
- pest or weed control at 500 ppm (Uromyces appendiculatus): 90 to 100%

SMILES: O=C(Cn1cncn1)c1ccc(Oc2ccc(Cl)nc2)nc1Cl [VII-03]
- LogP ([1]; compounds of formula (VII)): 1.99^[a]

SMILES: O=C(Cn1cncn1)c1cnc(Oc2ccc(C(F)(F)F)nc2)cc1C(F)(F)F [VII-04]
- LogP ([1]; compounds of formula (VII)): 2.66^[a]

SMILES: O=C(Cn1cncn1)c1ccc(Oc2ccc(Cl)nc2)nc1C(F)(F)F [VII-05]
- LogP ([1]; compounds of formula (VII)): 2.23^[a]

SMILES: O=C(Cn1cncn1)c1cnc(Oc2ccc(Cl)nc2)cc1C(F)(F)F [VII-06, 1-[6-[(6-chloro-3-pyridyl)oxy]-4-(trifluoromethyl)-3-pyridyl]-2-(1,2,4-triazol-1-yl)ethanone]
- chromatographic logP ([1]; compounds of formula (VII)): 2.21
- pest or weed control at 500 ppm (Septoria tritici): 80 to 89%
- pest or weed control at 500 ppm (Sphaerotheca fuliginea): 90 to 100%

SMILES: O=C(Cn1cncn1)c1cnc(Oc2ccc(Br)nc2)cc1C(F)(F)F [VII-07]
- LogP ([1]; compounds of formula (VII)): 2.94^[a]
